Test results reported in US11572341B2, “Biguanide compound and use thereof” (ImmunoMet Therapeutics Inc., priority 2014, dated 2023).
Like-named read-outs stand apart in the source and are kept apart here.

Tests used:
HCT116 cells = assay: Inhibitory effect against cancer cell proliferation (MTT); format: cell-based, human; conditions: HCT116, MTT, 48 hours, read-out: IC50 (uM) @ HCT116
Method: The formazane crystals thus formed were dissolved using dimethyl sulfoxide (DMSO) and absorbance of the solution was measured at 560 nm. After culturing for 48 hours, […] synthesized in Examples was indicated as cell viability (%) according to each treated concentration.

AMPKa [pT172] = assay: AMPKa activation [pT172] in MCF7 cell; format: cell-based

| Structure (SMILES) | IC50 (HCT116 cells; Homo sapiens, HCT-116) [µM] | AMPKa activation [pT172] (Unit/ml) @ MCF7 cell (AMPKa [pT172]; 5 uM) [Unit/ml] | AMPKa activation [pT172] (Unit/ml) @ MCF7 cell (AMPKa [pT172]; 10 uM) [Unit/ml] | AMPKa activation [pT172] (Unit/ml) @ MCF7 cell (AMPKa [pT172]; 50 uM) | IC50 (HCT116 cells) [µM] |
| --- | --- | --- | --- | --- | --- |
| Cl.N=C(NC(=N)N1CC=CC1)Nc1cccnc1 [Example 66, N1-2,5-dihydro-1H-pyrrol-N5-pyridin-3-yl Biguanide Hydrochloride] | > 100 | 3.3 | 3.7 | 4.1 Unit/ml |  |
| Cl.N=C(NC(=N)N1CC=CC1)N1CC=CC1 [Example 67, N1-2,5-dihydro-1H-pyrrol-N5-2,5-dihydro-1H-pyrrole Biguanide Hydrochloride] | 147 | 3.2 | 2.9 | 4.8 Unit/ml |  |
| Cl.N=C(NC(=N)N1CC=CCC1)N1CC=CCC1 [Example 68, N1-1,2,3,6-tetrahydropyridin-N5-1,2,3,6-tetrahydropyridine Biguanide Hydrochloride] | > 100 | 4.2 | 4.4 | 4.4 Unit/ml |  |
| CC1CCN(C(=N)NC(=N)Nc2ccc(CCN)cc2)CC1.Cl [Example 69, N1-(4-methyl)piperidin-N5-(4-aminoethyl)phenyl Biguanide Hydrochloride] | > 100 | 5.6 | 4.7 | 5.3 Unit/ml |  |
| CC(=O)c1ccc(NC(=N)NC(=N)N2CCCC2)cc1.Cl [Example 70, N1-pyrrolidin-N5-(4-acetyl)phenyl Biguanide Hydrochloride] | > 100 | 3.5 | 4.0 | 5.4 Unit/ml |  |
| Cl.N=C(NC(=N)N1CCCCC1)Nc1ccc(N2CCOCC2)cc1 [Example 71, N1-piperidin-N5-(4-morpholin-4-yl)phenyl Biguanide Hydrochloride] | > 100 | 3.8 | 4.3 | 5.8 Unit/ml |  |
| COc1ccc(NC(=N)NC(=N)N2CCCCC2)cc1.Cl [Example 73, N1-piperidin-N5-(4-methoxy)phenyl Biguanide Hydrochloride] | > 100 | 3.9 | 4.5 | 9.1 Unit/ml |  |
| Cl.N=C(NC(=N)N1CCCC1)Nc1ccccc1C(F)(F)F [Example 75, N1-pyrrolidin-N5-(2-trifluoromethyl)phenyl Biguanide Hydrochloride] |  | 3.5 | 3.6 | 5.3 Unit/ml | > 100 |
| Cl.N=C(NC(=N)N1CCCC1)Nc1cccc(Cl)c1Cl [Example 78, N1-pyrrolidin-N5-(2,3-dichloro)phenyl Biguanide Hydrochloride] | 58.3 | 3.4 | 3.4 | 3.8 Unit/ml |  |
| Cl.N=C(N)N/C(=N/CCc1ccccc1)Nc1ccccc1 [Example 94, N1-phenyl-N2-phenethyl Biguanide Hydrochloride] | 105 |  |  | 9.0 Unit/ml |  |
| Cl.N=C(NC(N)=NCCc1cccs1)N1CCCCC1 [Example 99, N1-piperidin-N2-(2-thiophen-2-yl)ethyl Biguanide Hydrochloride] |  | 4.0 | 2.9 | 3.6 Unit/ml | > 100 |
| CC/N=C(\NCc1ccc2c(c1)OCO2)NC(=N)N.Cl [Example 100, N1-(benzo[d][1,3]dioxol-5-yl)methyl-N2-ethyl Biguanide Hydrochloride] | > 100 | 7.1 | 9.0 | 8.0 Unit/ml |  |
| CC/N=C(\NCCc1ccc2c(c1)OCO2)NC(=N)N.Cl [Example 101, N1-2-(benzo[d][1,3]dioxol-5-yl)ethyl-N2-ethyl Biguanide Hydrochloride] | > 100 | 4.1 | 3.6 | 5.9 Unit/ml |  |
| C/N=C(\NCCc1ccc2c(c1)OCO2)NC(=N)N.Cl [Example 102, N1-2-(benzo[d][1,3]dioxol-5-yl)ethyl-N2-methyl Biguanide Hydrochloride] | > 100 | 4.8 | 2.8 | 6.8 Unit/ml |  |

Continued by falling IC50 (HCT116 cells; Homo sapiens, HCT-116), values first:

| IC50 (HCT116 cells; Homo sapiens, HCT-116) [µM] | Structure (SMILES) | AMPKa activation [pT172] (Unit/ml) @ MCF7 cell (AMPKa [pT172]; 5 uM) [Unit/ml] | AMPKa activation [pT172] (Unit/ml) @ MCF7 cell (AMPKa [pT172]; 10 uM) [Unit/ml] | AMPKa activation [pT172] (Unit/ml) @ MCF7 cell (AMPKa [pT172]; 50 uM) | IC50 (HCT116 cells) [µM] |
| --- | --- | --- | --- | --- | --- |
| 50.6 | Cl.N=C(NC(=N)N1CCCC1)Nc1ccc(F)c(Cl)c1 [Example 77, N1-pyrrolidin-N5-(3-chloro-4-fluoro)phenyl Biguanide Hydrochloride] | 4.5 | 5.7 | 13.9 Unit/ml |  |
| 49.2 | Cl.N=C(N)N/C(=N/C1CCCCCC1)NCc1ccc(Cl)cc1 [Example 98, N1-(4-chloro)benzyl-N2-cycloheptyl Biguanide Hydrochloride] | 7.2 | 9.6 | 37.5 Unit/ml |  |
| 48.3 | CCCc1ccccc1NC(=N)NC(=N)N1CCCCC1.Cl [Example 74, N1-piperidin-N5-(2-propyl)phenyl Biguanide Hydrochloride] | 4.9 | 5.3 | 8.3 Unit/ml |  |
| 42.1 | Cl.N=C(NC(=N)N1CCCC1)Nc1cc(C(F)(F)F)ccc1Cl [Example 76, N1-pyrrolidin-N5-(2-chloro-5-trifluoromethyl)phenyl Biguanide Hydrochloride] | 4.5 | 4.7 | 8.8 Unit/ml |  |
| 36.1 | CC1CC(C)CN(C(=N)NC(=N)Nc2ccc(F)cc2)C1.Cl (stereo not shown) [Example 64, N1-(3,5-dimethyl)piperidin-N5=(4-fluoro)phenyl Biguanide Hydrochloride] | 2.2 | 4.4 | 31.4 Unit/ml |  |
| 14.1 | Cl.N=C(N)N/C(=N/c1ccc(Br)cc1)NCCc1ccccc1 [Example 95, N1-phenethvl-N2-(4-bromo)phenyl Biguanide Hydrochloride] | 4.9 | 6.8 | 23.6 Unit/ml |  |
| 12.6 | CC1CCN(C(=N)NC(=N)NCc2ccc(C(F)(F)F)cc2)CC1.Cl [Example 61, N1 (4-methyl)piperidin-N5-(4-trifluoromethyl)benzyl Biguanide Hydrochloride] | 6.4 | 11.8 | 12.3 Unit/ml |  |
| 7.9 | Cl.N=C(NC(=N)N1CCCC1)Nc1ccc(SC(F)(F)F)cc1 [Example 79, N1-pyrrolidin-N5-(4-trifluoromethylthio)phenyl Biguanide Hydrochloride] | 7.8 | 11.7 | cell death |  |
| 2.8 | CC1CC(C)CN(C(=N)NC(=N)Nc2ccc(OC(F)(F)F)cc2)C1.Cl (stereo not shown) [Example 62, N1-(3,5-dimethyl)piperidin-N5-(4-trifluoromethoxy)phenyl Biguanide Hydrochloride] | 8.5 | 26.6 | cell death |  |
| 2.5 | CC1CC(C)CN(C(=N)NC(=N)Nc2ccc(F)c(C(F)(F)F)c2)C1.Cl (stereo not shown) [Example 65, N1-(3,5-dimethyl)piperidin-N5-(3-trifluoromethyl-4-fluoro)phenyl Biguanide Hydrochloride] | 15.0 | 20.1 | cell death |  |
